These results are taken from ChEMBL document CHEMBL3407379, “Novel sesquiterpenes from Schisandra grandiflora: isolation, cytotoxic activity and synthesis of their triazole derivatives using "click" reaction” (Eur J Med Chem, 2015).

One test relates to HeLa. The test is described as follows: Cytotoxicity against human HeLa cells assessed as cell viability after 48 hrs by MTT assay. Type of test: functional, cell-based. On the technique in general: Formazan colour is commonly taken as a measure of viable cells.
Another test has as its system A549. In words: Cytotoxicity against human A549 cells assessed as cell viability after 48 hrs by MTT assay. In kind it is functional, cell-based. The following applies: A549, 48 h.
Another test has as its system DU-145. The test is described as follows: Cytotoxicity against human DU145 cells assessed as cell viability after 48 hrs by MTT assay. Type of test: functional, cell-based. The following applies: DU-145, 48 h.
A further test relates to MCF7. The test is described as follows: Cytotoxicity against human MCF7 cells assessed as cell viability after 48 hrs by MTT assay. In kind it is functional, cell-based. To be noted: MCF7, 48 h.
The test system of another test is B16. In words: Cytotoxicity against mouse B16 cells assessed as cell viability after 48 hrs by MTT assay. In kind it is functional, cell-based. To be noted: B16, 48 h.
The test system of the next test is HEK293. The test is described as follows: Cytotoxicity against HEK293 cells assessed as cell viability after 48 hrs by MTT assay. In kind it is cell-based. To be noted: Homo sapiens, HEK293, 48 h.

For the compound `C=C1CC[C@@H](C(C)C)[C@]12CC=C(C=O)CC2`, the IC50 – broadly, the concentration that gives 50% inhibition – in the test on HeLa was 269 µM; with A549 it was 170 µM; in the test on DU-145, 165 µM; in the test with MCF7, 210 µM; with B16 it was 428 µM; in the test on HEK293, 550 µM.
For the compound `C=C1CCC[C@]2(C)CCC(c3cn(-c4cc(OC)c(OC)cc4OC)nn3)=CC[C@@]12C`, the IC50 in the test on HeLa stood at 45 µM; with A549, 32.6 µM; in the test on DU-145 it was 49.4 µM; in the test with MCF7, 41.1 µM; with B16, 47.2 µM; in the test with HEK293, 334 µM.
Turning to `C=C1CCC[C@]2(C)CCC(c3cn(CC(=O)Nc4ccc(C)cc4)nn3)=CC[C@@]12C`, the IC50 in the test with HeLa was 131 µM; with A549, 270 µM; with DU-145, 254 µM; with MCF7 it was 80.1 µM; with B16 it was 210 µM; in the test with HEK293, 622 µM.
As for `CC1(C)CCC[C@]1(C)c1ccc(C=O)cc1`, the concentration for half-maximal inhibition (IC50) is 252 µM in the test on HeLa; 216 µM in the test with A549; 260 µM with DU-145; 202 µM in the test on MCF7; 257 µM in the test with B16; 771 µM in the test with HEK293.
`C=C1CCC[C@]2(C)CCC(c3cn(-c4ccc(C)cc4)nn3)=CC[C@@]12C`: the IC50 in the test with HeLa came out at 69.1 µM; in the test with A549 it was 58.8 µM; in the test with DU-145 it was 132 µM; in the test with MCF7, 54.9 µM; in the test with B16, 57.6 µM; in the test on HEK293 it was 524 µM.
`C#CC1=CC[C@@]2(C)C(=C)CCC[C@]2(C)CC1`: the IC50 turned out to be 158 µM in the test with HeLa; 148 µM with A549; 386 µM in the test on DU-145; 575 µM with MCF7; 507 µM with B16; 524 µM with HEK293.
With `C=C1CCC[C@]2(C)CCC(c3cn(-c4ccc(I)cc4)nn3)=CC[C@@]12C`, the IC50 in the test with HeLa came to 144 µM; in the test on A549 it was 137 µM; in the test with DU-145, 145 µM; in the test on MCF7 it was 162 µM; in the test with B16 it was 144 µM; in the test on HEK293 it was 215 µM.
Take `C=C1CC[C@@H](C(C)C)[C@]12CC=C(c1cn(-c3cc(OC)c(OC)cc3OC)nn1)CC2`: the 50% inhibitory concentration (IC50) in the test with HeLa is 37.4 µM; in the test with A549 it was 20.5 µM; in the test on DU-145 it was 29.7 µM; with MCF7 it was 44 µM; with B16, 29.1 µM; in the test with HEK293, 509 µM.
With `C=C1CCC[C@]2(C)CCC(c3cn(-c4ccc(OC)cc4)nn3)=CC[C@@]12C`, the IC50 was found to be 43.6 µM in the test on HeLa; 34.6 µM in the test on A549; 58.9 µM with DU-145; 118 µM in the test with MCF7; 209 µM with B16; 410 µM with HEK293.
Regarding `CC1(C)CCCC23C=C[C@](C)(CC[C@@]12C)OO3`, the IC50 with HeLa was found to be 122 µM; with A549, 94.8 µM; in the test with DU-145, 114 µM; in the test on MCF7, 129 µM; in the test with B16 it was 343 µM; in the test on HEK293, 480 µM.
On to `C#CC1=CC[C@]2(CC1)C(=C)CC[C@H]2C(C)C`, for which the IC50 in the test with HeLa stood at 97.6 µM; in the test on A549, 103 µM; in the test with DU-145, 121 µM; in the test with MCF7, 135 µM; in the test on B16, 123 µM; in the test with HEK293, 740 µM.
In the case of `C=C1CCC[C@]2(C)CCC(c3cn(-c4ccccc4C(C)=O)nn3)=CC[C@@]12C`, the IC50 in the test with HeLa amounted to 55.7 µM; in the test with A549, 37.6 µM; with DU-145, 48.5 µM; in the test on MCF7, 29.9 µM; in the test on B16, 42.2 µM; in the test on HEK293 it was 524 µM.
In the case of `C=C1CC[C@@H](C(C)C)[C@]12CC=C(c1cn(-c3ccc(OC)cc3)nn1)CC2`, the IC50 is 54.9 µM in the test on HeLa; 43.6 µM in the test with A549; 65.1 µM with DU-145; 63.1 µM in the test on MCF7; 107 µM in the test with B16; 388 µM in the test with HEK293.
With `C=C1CCC[C@]2(C)CCC(c3cn(-c4ccc(Cl)cc4)nn3)=CC[C@@]12C`, the IC50 came to 18.8 µM in the test on HeLa; 20.1 µM in the test on A549; 26 µM with DU-145; 35.1 µM with MCF7; 27.2 µM in the test with B16; 609 µM with HEK293.
Turning to `C=C1CCC[C@]2(C)CCC(C=O)=CC[C@@]12C`, the IC50 in the test on HeLa turned out to be 190 µM; with A549, 145 µM; in the test on DU-145, 152 µM; in the test on MCF7, 319 µM; with B16, 230 µM; in the test with HEK293 it was 734 µM.
Take `CC1(C)CCCC2=CC=C(C=O)CC[C@]21C`: the IC50 in the test with HeLa is 163 µM; in the test with A549 it was 138 µM; in the test on DU-145, 191 µM; in the test with MCF7, 166 µM; in the test on B16, 145 µM; in the test with HEK293 it was 696 µM.
For `COc1cccc2c1C(=O)c1c(O)c3c(c(O)c1C2=O)C[C@@](O)(C(=O)CO)C[C@@H]3O[C@H]1C[C@H](N)[C@H](O)[C@H](C)O1` [DOXORUBICIN], the IC50 came to 3.57 µM in the test on HeLa, 5.3 µM in the test with DU-145, 2.24 µM with MCF7 and 2.78 µM in the test on B16.
For the compound `C=C1CCC[C@]2(C)CCC(c3cn(CC(=O)Nc4ccccc4)nn3)=CC[C@@]12C`, the IC50 with HeLa was found to be 62.9 µM; in the test with A549, 72.2 µM; with DU-145 it was 146 µM; with MCF7, 148 µM; in the test with B16 it was 148 µM; in the test with HEK293, 491 µM.
For the compound `C=C1CCC[C@]2(C)CCC(c3cn(-c4cccc(OC)c4)nn3)=CC[C@@]12C`, the IC50 in the test with HeLa amounted to 27.9 µM; in the test on A549, 11.2 µM; in the test on DU-145, 38.9 µM; in the test with MCF7, 56.2 µM; in the test on B16, 34.6 µM; in the test with HEK293, 734 µM.
Take `C=C1CCC[C@]2(C)CCC(c3cn(-c4cccc([N+](=O)[O-])c4)nn3)=CC[C@@]12C`: the IC50 turned out to be 31.9 µM in the test with HeLa; 24.7 µM with A549; 62.5 µM in the test with DU-145; 40.3 µM with MCF7; 31.7 µM in the test on B16; 699 µM in the test with HEK293.
Take `C=C1CC[C@@H](C(C)C)[C@]12CC=C(c1cn(CC(=O)Nc3ccc(C)cc3)nn1)CC2`: the half-maximal inhibitory concentration (IC50) in the test with HeLa was found to be 54.1 µM; with A549 it was 31.7 µM; in the test with DU-145, 44.5 µM; with MCF7 it was 142 µM; with B16 it was 195 µM; with HEK293, 303 µM.
`C=C1CCC[C@]2(C)CCC(c3cn(-c4ccc(C(C)=O)cc4)nn3)=CC[C@@]12C`: the IC50 in the test with HeLa turned out to be 15.1 µM; in the test on A549, 46.4 µM; with DU-145 it was 51.7 µM; in the test on MCF7, 65.4 µM; in the test on B16, 61 µM; with HEK293, 520 µM.
